# Reference: the supplement of paper PMC4862054
# Columns and labels:
# [1] = system: SK-BR-3; details: 72 h
# How it was run: (§1)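 To measure viability, fluorescence at 560/590 nm was read after 2.5 µl CellTiter-Blue had been added for 2 h at 37 °C. Cells from breast cancer lines had been seeded in 20 µl suspension onto 384-well plates pre-loaded with compound dissolved in 5 µl medium and kept for 72 h. EC50 comes from a fitted percent-inhibition dose-response curve censored at the highest concentration, after per-plate normalisation to vehicle and a positive kill control, Z'-factor checks, and removal of rows with zero drug sensitivity score.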
# [2] = system: MDA-MB-436; details: 72 h
# How it was run: as §1
# [3] = system: HCC1937; details: 72 h
# How it was run: as §1
# [4] = system: MDA-MB-231; details: 72 h
# How it was run: as §1
# [5] = system: BT-474; details: 72 h
# How it was run: as §1
# [6] = system: CAL-120; details: 72 h
# How it was run: as §1
# [7] = system: MDA-MB-468; details: 72 h
# How it was run: as §1
# [8] = system: Hs578T; details: 72 h
# How it was run: as §1
# [9] = system: MFM-223; details: 72 h
# How it was run: as §1
# [10] = system: BT-549; details: 72 h
# How it was run: as §1
# [11] = system: HCC1599; experiment: drug sensitivity score (DSS), CellTox Green (DSS (AUC-based score)); higher = stronger drug effect (viability inhibition or cytotoxicity); extreme values may be limits of the assay; details: incubation time: 72 h
# How it was run: (§2)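 Normalisation on every plate relied on 0.1 % DMSO and a positive kill control. The plates, 384-well format, held compound at 5 concentrations 10-fold apart across a compound-specific 10,000-fold range, and breast cancer cell lines in 20 µl suspension were incubated on them for 72 h before CellTox Green and then CellTiter-Glo readings. The drug sensitivity score derives from the area under the fitted dose-response curve.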
# [12] = system: CAL-120; experiment: as above; details: incubation time: 72 h
# How it was run: as §2
# [13] = system: MDA-MB-468; experiment: as above; details: incubation time: 72 h
# How it was run: as §2
# [14] = system: CAL-85-1; details: 72 h
# How it was run: (§3)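 For viability and cell death testing, 384-well plates carried compound at 5 concentrations in 10-fold steps over a compound-specific 10,000-fold range, and breast cancer cell lines were seeded in 20 µl suspension. After 72 h incubation, cell death was read by CellTox Green fluorescence (485/520 nm) before viability was read by CellTiter-Glo luminescence. EC50 was fitted from the dose-response curves and censored at the top concentration. Normalisation on each plate was to 0.1 % DMSO and a positive kill control.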
# [15] = system: SK-BR-3; details: 72 h; remark: listed apart in the source
# How it was run: as §3
# [16] = system: HDQ-P1; details: 72 h
# How it was run: as §3
# [17] = system: MDA-MB-436; details: 72 h; remark: listed apart in the source
# How it was run: as §3
# [18] = system: DU-4475; details: 72 h
# How it was run: as §3
# [19] = system: HCC1143; details: 72 h
# How it was run: as §3
# [20] = system: HCC1599; details: 72 h
# How it was run: as §3
# [21] = system: HCC1937; details: 72 h; remark: listed apart in the source
# How it was run: as §3
# [22] = system: CAL-51; details: 72 h
# How it was run: as §3
# [23] = system: MDA-MB-231; details: 72 h; remark: listed apart in the source
# How it was run: as §3
# [24] = system: BT-474; details: 72 h; remark: listed apart in the source
# How it was run: as §3
# [25] = system: MDA-MB-453; details: 72 h
# How it was run: as §3
# [26] = system: CAL-120; details: 72 h; remark: listed apart in the source
# How it was run: as §3
# [27] = system: Hs578T; details: 72 h; remark: listed apart in the source
# How it was run: as §3
# [28] = system: MFM-223; details: 72 h; remark: listed apart in the source
# How it was run: as §3
# [29] = system: BT-549; details: 72 h; remark: listed apart in the source
# How it was run: as §3
# [30] = system: CAL-148; details: 72 h
# How it was run: as §3
# [31] = system: MCF-10A; details: 72 h
# How it was run: as §3
# [32] = system: CAL-85-1; details: 72 h; remark: listed apart in the source
# How it was run: as §1
# [33] = system: HDQ-P1; details: 72 h; remark: listed apart in the source
# How it was run: as §1
# [34] = system: DU-4475; details: 72 h; remark: listed apart in the source
# How it was run: as §1
# [35] = system: CAL-51; details: 72 h; remark: listed apart in the source
# How it was run: as §1
# [36] = system: MDA-MB-453; details: 72 h; remark: listed apart in the source
# How it was run: as §1
SMILES,"EC50, CellTiter-Blue viability [1] [µM]","EC50, CellTiter-Blue viability [2] [µM]","EC50, CellTiter-Blue viability [3] [µM]","EC50, CellTiter-Blue viability [4] [µM]","EC50, CellTiter-Blue viability [5] [µM]","EC50, CellTiter-Blue viability [6] [µM]","EC50, CellTiter-Blue viability [7] [µM]","EC50, CellTiter-Blue viability [8] [µM]","EC50, CellTiter-Blue viability [9] [µM]","EC50, CellTiter-Blue viability [10] [µM]",drug sensitivity score [11],drug sensitivity score [12],drug sensitivity score [13],"EC50, CellTiter-Glo [14] [µM]","EC50, CellTiter-Glo [15] [µM]","EC50, CellTiter-Glo [16] [µM]","EC50, CellTiter-Glo [17] [µM]","EC50, CellTiter-Glo [18] [µM]","EC50, CellTiter-Glo [19] [µM]","EC50, CellTiter-Glo [20] [µM]","EC50, CellTiter-Glo [21] [µM]","EC50, CellTiter-Glo [22] [µM]","EC50, CellTiter-Glo [23] [µM]","EC50, CellTiter-Glo [24] [µM]","EC50, CellTiter-Glo [25] [µM]","EC50, CellTiter-Glo [26] [µM]","EC50, CellTiter-Glo [27] [µM]","EC50, CellTiter-Glo [28] [µM]","EC50, CellTiter-Glo [29] [µM]","EC50, CellTiter-Glo [30] [µM]","EC50, CellTiter-Glo [31] [µM]","EC50, CellTiter-Blue viability [32] [µM]","EC50, CellTiter-Blue viability [33] [µM]","EC50, CellTiter-Blue viability [34] [µM]","EC50, CellTiter-Blue viability [35] [µM]","EC50, CellTiter-Blue viability [36] [µM]"
Cc1[nH]c2ccccc2c1CCNCc1ccc(/C=C/C(=O)NO)cc1 [Panobinostat],0.0102,0.107,0.0146,0.0326,0.0286,0.0111,0.0883,0.0262,0.0399,0.125,4.47,13.8,10,0.0334,0.0137,0.115,0.0582,0.0183,0.0335,0.0464,0.168,0.0226,0.0243,0.0318,0.00995,0.0623,0.0432,0.0276,0.0813,0.021,0.0891,0.0238,0.035,0.0182,0.0497,0.00443
Nc1cc(C(F)(F)F)c(-c2cc(N3CCOCC3)nc(N3CCOCC3)n2)cn1 [BKM-120],0.257,4.19,2.09,1.91,1.18,0.887,2.33,3.01,1.36,1.57,–,–,–,–,–,–,–,–,–,–,–,–,–,–,–,–,–,–,–,–,–,1.31,1.26,2.26,0.922,0.532
CNC(=O)c1cc(Oc2ccc(NC(=O)Nc3ccc(Cl)c(C(F)(F)F)c3)c(F)c2)ccn1 [Regorafenib],–,–,5.96,2.37,8.34,9.38,7.8,6.69,0.706,7.21,0,0,0,–,> 10,5.11,6.38,2.97,–,8.02,> 10,0.216,4.56,3.5,2.89,9.95,2.29,1.15,9.05,4.59,1.88,–,–,3,2.74,2.74
